Data taken from paper PMC9571303, “Development of Clinical Weekly-Dose Teriparatide Acetate Encapsulated Dissolving Microneedle Patch for Efficient Treatment of Osteoporosis” (Polymers, 2022).
Several values for one entry are separate records, joined by “and”; a condition that tells them apart may be missing. Identical values can stand only once. Like-named read-outs stand apart in the source and are kept apart here.

Key:
[1] = In vivo pharmacokinetic analysis after TA delivery; set-up: species or system Sprague Dawley rats; conditions: SD rats; for half-life: male, Sprague Dawley, rat
Description: Six-week-old male Sprague Dawley rats (SD rats) were purchased from Young Bio Inc. (Seongnam, Korea) and allowed seven days for acclimation. Three groups of SD rats were used for the pharmacokinetic study. All the dorsal regions of the SD rats were shaved for application of the TA-DMN patches. Group 1 was administered a subcutaneous injection of a formulation containing 60.6 μg of TA into the central part of the back using a 27 G hypodermic needle (Becton Dickinson, Franklin Lakes, NJ, USA), and served as the positive control. Group 2 received one TA-DMN patch containing 61.4 ± 1.3 µg of TA. Group 3 received two TA-DMN patches containing 122.8 ± 2.6 µg of TA. A home-made shooting device was used to apply the TA-DMN patches on the backs of the SD rats, and a dressing (Tegaderm; 3M Health Care, St. Paul, MN, USA) was used to cover the patches. In addition, a self-adherent bandage wrap (Coban; 3M Health Care, St. Paul, MN, USA) was used to secure the patches.
At 0, 0.25, 0.5, 0.75, 1, 2, 3.5, 4, 5, 6, and 24 h after subcutaneous administration of TA in group 1, 100 μL of blood was taken into a Microvette (SARSTEDT; Nümbrecht, Germany) from the saphenous vein, which was exposed after a minor incision of the tail by a surgical blade. Blood samples were collected in the same manner at 0, 0.5, 1, 2, 3.5, 4, 5, 6, and 24 h after TA-DMN patch application in group 2, and at 0, 0.5, 1, 1.5, 3, 4, 5, 6, and 24 h after TA-DMN patch application in group 3. The collected blood was left at room temperature for 30 min and centrifuged using a microcentrifuge (Hanil, Dajeon, Korea) at 1000× g for 10 min to separate the plasma. All separated plasma samples were transferred to 1.5-mL Eppendorf tubes and stored at −70 °C. TA concentrations in rat plasma were determined via enzyme-linked immunosorbent assay (ELISA) using a TA pharmacokinetics ELISA kit (SB-07-043; Somru Bioscience, Charlottetown, PE, Canada) and a microplate reader (Perkin Elmer, Waltham, MA, USA). Based on the determined TA concentrations in rat plasma, the areas under the concentration curve (AUC) were computed using the trapezoid area calculation method, and BA was evaluated to analyze the pharmacokinetic profiles.

[2] = TA activity after drying in CL-mimic conditions (RP-HPLC); type: physicochemical; conditions: droplets dried at 4 °C under vacuum (CL-mimic), reconstituted in PBS, RP-HPLC C18, UV, mean ± SD, n = 15
Description: TA activity was assessed via reverse-phase high-performance liquid chromatography (RP-HPLC) under CL-mimic conditions, in which TA undergoes a drying process from droplets of matric polymer with TA. TA polymer solutions were dispensed as droplets on a polyurethane film (SLA, Gumi, Korea) using a robotic dispenser (ML-5000X; Musashi Engineering, Inc., Tokyo, Japan) and dried at 4 °C under vacuum to mimic the conditions of the CL. Dried droplets were then dissolved in phosphate-buffered saline (PBS; Life Technologies, Carlsbad, CA, USA) for reconstitution and analyzed via RP-HPLC using a separation module (Waters e2695; Waters Corp., Milford, MA, USA) and a dual λ absorbance detector (Waters 2487′ Waters Corp., Milford, MA, USA). A C18 column (COSMOSIL; 5 μm, 150 × 4.6 mm) was used for HPLC. Mobile phase A was prepared as 10% acetonitrile (Sigma-Aldrich, St. Louis, MO, USA) and 90% 0.2 M sodium sulfate (Sigma-Aldrich, St. Louis, MO, USA) and phase B was prepared as 50% acetonitrile and 50% of 0.2 M sodium sulfate with a flow rate of 1.3 mL/min and detection wavelength of […].

Tmax ([1]; Group 1: subcutaneous injection, 60.6 μg TA, plasma ELISA, n = 3): 18 min | BA ([1]; Group 1: subcutaneous injection, 60.6 μg TA, positive control (reference), n = 3): 100% and 100 ± 10.5% | half-life ([1]; plasma, after all three TA administration methods (SC, one patch, two patches), read-out: half-life t½ of TA in plasma (converted)): ~48 min | half-life ([1]; sc, Group 1: subcutaneous injection, 60.6 μg TA, plasma ELISA, n = 3, read-out: t1/2 (converted)): 48 min | TA activity after drying ([2]; TA polymer solution (HA) with 10% trehalose): 75.4 ± 8.3% | TA activity after drying ([2]; TA polymer solution (HA) without trehalose): 59.0 ± 3.6%
SMILES: CC[C@H](C)[C@H](NC(=O)[C@H](CCC(=O)O)NC(=O)[C@H](CO)NC(=O)[C@@H](NC(=O)[C@@H](N)CO)C(C)C)C(=O)N[C@@H](CCC(N)=O)C(=O)N[C@@H](CC(C)C)C(=O)N[C@@H](CCSC)C(=O)N[C@@H](Cc1cnc[nH]1)C(=O)N[C@@H](CC(N)=O)C(=O)N[C@@H](CC(C)C)C(=O)NCC(=O)N[C@@H](CCCCN)C(=O)N[C@@H](Cc1cnc[nH]1)C(=O)N[C@@H](CC(C)C)C(=O)N[C@@H](CC(N)=O)C(=O)N[C@@H](CO)C(=O)N[C@@H](CCSC)C(=O)N[C@@H](CCC(=O)O)C(=O)N[C@@H](CCCN=C(N)N)C(=O)N[C@H](C(=O)N[C@@H](CCC(=O)O)C(=O)N[C@@H](Cc1c[nH]c2ccccc12)C(=O)N[C@@H](CC(C)C)C(=O)N[C@@H](CCCN=C(N)N)C(=O)N[C@@H](CCCCN)C(=O)N[C@@H](CCCCN)C(=O)N[C@@H](CC(C)C)C(=O)N[C@@H](CCC(N)=O)C(=O)N[C@@H](CC(=O)O)C(=O)N[C@H](C(=O)N[C@@H](Cc1cnc[nH]1)C(=O)N[C@@H](CC(N)=O)C(=O)N[C@@H](Cc1ccccc1)C(=O)O)C(C)C)C(C)C [TA, teriparatide acetate]
